Source: patent US6479056B1, “Live vaccine constituting minor risk for humans” (priority 1994, dated 2002)

Tested on: wild strains
Test: MHK of antibiotics for wild strains
Format: cell-based, Salmonella

Row | Structure (SMILES) | MHK
1 | O=C(N[C@H](CO)[C@H](O)c1ccc([N+](=O)[O-])cc1)C(Cl)Cl [chloramphenicol] | (Berlin-Chemie) 2.0 ug/ml
2 | O=C(O)c1cn(C2CC2)c2cc(N3CCNCC3)c(F)cc2c1=O [ciprofloxacin] | (Bayer) wild strains MHK 0.05 ug/ml
3 | C[C@H]1c2cccc(O)c2C(=O)C2=C(O)[C@]3(O)C(=O)C(C(N)=O)=C(O)[C@@H](N(C)C)[C@@H]3[C@@H](O)[C@@H]21 [doxycycline] | (Jenapharm) wild strains MHK 4.0 ug/ml
4 | CC[C@H]1OC(=O)[C@H](C)[C@@H](O[C@H]2C[C@@](C)(OC)[C@@H](O)[C@H](C)O2)[C@H](C)[C@@H](O[C@@H]2O[C@H](C)C[C@H](N(C)C)[C@H]2O)[C@](C)(O)C[C@@H](C)C(=O)[C@H](C)[C@@H](O)[C@]1(C)O [erythromycin] | (Abbott) wild strains MHK 60.0 ug/ml
5 | CCn1cc(C(=O)O)c(=O)c2ccc(C)nc21 [nalidixic acid] | (CHINOIN, Budapest) wild strains MHK 6.2 ug/ml
6 | [H]/N=C(/N)N[C@H]1[C@H](O)[C@@H](O)[C@H](O[C@@H]2O[C@@H](C)[C@](O)(C=O)[C@H]2O[C@@H]2O[C@@H](CO)[C@H](O)[C@@H](O)[C@@H]2NC)[C@@H](N/C(N)=N\[H])[C@@H]1O [streptomycin] | (Jenapharm) wild strains MHK 6.2 ug/ml
